{
  "source": "the supplement of paper PMC10307832",
  "assay_in_all_cases": "relative viability (nuclei count vs DMSO), 5 days (fraction); higher = more cells survive",
  "key": {"JZL-184": {"compound": "C1CN(CCC1C(C2=CC3=C(C=C2)OCO3)(C4=CC5=C(C=C4)OCO5)O)C(=O)OC6=CC=C(C=C6)[N+](=O)[O-] [JZL-184]", "summary_of_the_method": "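After an overnight hold at 37 °C, lung cancer cell lines in 1536-well plates were pinned with five library-drug doses (not always all listed), each √10 from the next, on vehicle-anchored plates. The cells stayed 5 days without fresh medium, then a one-step fix, permeabilisation and Hoechst stain preceded 4× imaging and MetaXpress nuclear counts. A plate passed only with control CV under 25% and at least one doubling. Viability is the median, over plates, of treated-well nuclei relative to vehicle-well nuclei.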"}, "JZL-184 + Trametinib": {"compound": "C1CN(CCC1C(C2=CC3=C(C=C2)OCO3)(C4=CC5=C(C=C4)OCO5)O)C(=O)OC6=CC=C(C=C6)[N+](=O)[O-] [JZL-184] + CC(=O)Nc1cccc(-n2c(=O)n(C3CC3)c(=O)c3c(Nc4ccc(I)cc4F)n(C)c(=O)c(C)c32)c1 [Trametinib] (partner 0.02 µM)", "summary_of_the_method": "(§1)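 Relative viability equals treated-well nuclei counts divided by vehicle-well nuclei counts. Counts came from 4× images of lung cancer cell lines grown in 1536-well plates for 5 days after pin-tool dosing on the day after seeding. Dosing used one drug alone or a fixed anchor-drug dose plus five library-drug doses (not always all listed) in √10 steps, and values are medians of duplicate plates.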"}, "JZL-184 + Palbociclib": {"compound": "C1CN(CCC1C(C2=CC3=C(C=C2)OCO3)(C4=CC5=C(C=C4)OCO5)O)C(=O)OC6=CC=C(C=C6)[N+](=O)[O-] [JZL-184] + CC(=O)c1c(C)c2cnc(Nc3ccc(N4CCNCC4)cn3)nc2n(C2CCCC2)c1=O [Palbociclib] (partner 0.5 µM)", "summary_of_the_method": "as §1"}, "JZL-184 + OSI-027": {"compound": "C1CN(CCC1C(C2=CC3=C(C=C2)OCO3)(C4=CC5=C(C=C4)OCO5)O)C(=O)OC6=CC=C(C=C6)[N+](=O)[O-] [JZL-184] + COc1cccc2cc(-c3nc([C@H]4CC[C@H](C(=O)O)CC4)n4ncnc(N)c34)[nH]c12 [OSI-027] (partner 0.5 µM)", "summary_of_the_method": "as §1"}, "JZL-184 + Tozasertib": {"compound": "C1CN(CCC1C(C2=CC3=C(C=C2)OCO3)(C4=CC5=C(C=C4)OCO5)O)C(=O)OC6=CC=C(C=C6)[N+](=O)[O-] [JZL-184] + Cc1cc(Nc2cc(N3CCN(C)CC3)nc(Sc3ccc(NC(=O)C4CC4)cc3)n2)n[nH]1 [Tozasertib] (partner 0.1 µM)", "summary_of_the_method": "as §1"}, "JZL-184 + AZD7762": {"compound": "C1CN(CCC1C(C2=CC3=C(C=C2)OCO3)(C4=CC5=C(C=C4)OCO5)O)C(=O)OC6=CC=C(C=C6)[N+](=O)[O-] [JZL-184] + NC(=O)Nc1cc(-c2cccc(F)c2)sc1C(=O)N[C@H]1CCCNC1 [AZD7762] (partner 0.2 µM)", "summary_of_the_method": "as §1"}, "JZL-184 + Pemetrexed": {"compound": "C1CN(CCC1C(C2=CC3=C(C=C2)OCO3)(C4=CC5=C(C=C4)OCO5)O)C(=O)OC6=CC=C(C=C6)[N+](=O)[O-] [JZL-184] + Nc1nc2[nH]cc(CCc3ccc(C(=O)N[C@@H](CCC(=O)O)C(=O)O)cc3)c2c(=O)[nH]1 [Pemetrexed] (partner 0.2 µM)", "summary_of_the_method": "as §1"}, "JZL-184 + Decitabine": {"compound": "C1CN(CCC1C(C2=CC3=C(C=C2)OCO3)(C4=CC5=C(C=C4)OCO5)O)C(=O)OC6=CC=C(C=C6)[N+](=O)[O-] [JZL-184] + Nc1ncn([C@H]2C[C@H](O)[C@@H](CO)O2)c(=O)n1 [Decitabine] (partner 2 µM)", "summary_of_the_method": "as §1"}, "JZL-184 + Vorinostat": {"compound": "C1CN(CCC1C(C2=CC3=C(C=C2)OCO3)(C4=CC5=C(C=C4)OCO5)O)C(=O)OC6=CC=C(C=C6)[N+](=O)[O-] [JZL-184] + O=C(CCCCCCC(=O)Nc1ccccc1)NO [Vorinostat] (partner 1 µM)", "summary_of_the_method": "as §1"}, "JZL-184 + Olaparib": {"compound": "C1CN(CCC1C(C2=CC3=C(C=C2)OCO3)(C4=CC5=C(C=C4)OCO5)O)C(=O)OC6=CC=C(C=C6)[N+](=O)[O-] [JZL-184] + O=C(c1cc(Cc2n[nH]c(=O)c3ccccc23)ccc1F)N1CCN(C(=O)C2CC2)CC1 [Olaparib] (partner 8 µM)", "summary_of_the_method": "as §1"}},
  "data": [
    {"cell line": "NCI-H1648", "values": [
      {"measurement": "relative viability", "setting": "JZL-184; 0.04 µM", "value": 0.593},
      {"measurement": "relative viability", "setting": "JZL-184; 0.4 µM", "value": 0.893},
      {"measurement": "relative viability", "setting": "JZL-184; 1.265 µM", "value": 1.07},
      {"measurement": "relative viability", "setting": "JZL-184; 4 µM", "value": 1.08},
      {"measurement": "relative viability", "setting": "JZL-184 + Trametinib; first compound 0.04 µM", "value": 0.402},
      {"measurement": "relative viability", "setting": "JZL-184 + Trametinib; first compound 0.4 µM", "value": 0.413},
      {"measurement": "relative viability", "setting": "JZL-184 + Trametinib; first compound 1.265 µM", "value": 0.481},
      {"measurement": "relative viability", "setting": "JZL-184 + Trametinib; first compound 4 µM", "value": 0.445},
      {"measurement": "relative viability", "setting": "JZL-184 + Palbociclib; first compound 0.04 µM", "value": 0.271},
      {"measurement": "relative viability", "setting": "JZL-184 + Palbociclib; first compound 0.4 µM", "value": 0.238},
      {"measurement": "relative viability", "setting": "JZL-184 + Palbociclib; first compound 1.265 µM", "value": 0.233},
      {"measurement": "relative viability", "setting": "JZL-184 + Palbociclib; first compound 4 µM", "value": 0.297},
      {"measurement": "relative viability", "setting": "JZL-184 + OSI-027; first compound 0.4 µM", "value": 0.24},
      {"measurement": "relative viability", "setting": "JZL-184 + OSI-027; first compound 1.265 µM", "value": 0.257},
      {"measurement": "relative viability", "setting": "JZL-184 + OSI-027; first compound 4 µM", "value": 0.223},
      {"measurement": "relative viability", "setting": "JZL-184 + Tozasertib; first compound 0.4 µM", "value": 0.491},
      {"measurement": "relative viability", "setting": "JZL-184 + Tozasertib; first compound 1.265 µM", "value": 0.466},
      {"measurement": "relative viability", "setting": "JZL-184 + Tozasertib; first compound 4 µM", "value": 0.538},
      {"measurement": "relative viability", "setting": "JZL-184 + AZD7762; first compound 0.04 µM", "value": 0.694},
      {"measurement": "relative viability", "setting": "JZL-184 + AZD7762; first compound 0.4 µM", "value": 0.719},
      {"measurement": "relative viability", "setting": "JZL-184 + AZD7762; first compound 1.265 µM", "value": 0.824},
      {"measurement": "relative viability", "setting": "JZL-184 + AZD7762; first compound 4 µM", "value": 0.706},
      {"measurement": "relative viability", "setting": "JZL-184 + Pemetrexed; first compound 0.04 µM", "value": 0.712},
      {"measurement": "relative viability", "setting": "JZL-184 + Pemetrexed; first compound 0.4 µM", "value": 0.832},
      {"measurement": "relative viability", "setting": "JZL-184 + Pemetrexed; first compound 1.265 µM", "value": 0.651},
      {"measurement": "relative viability", "setting": "JZL-184 + Pemetrexed; first compound 4 µM", "value": 0.564},
      {"measurement": "relative viability", "setting": "JZL-184 + Decitabine; first compound 0.04 µM", "value": 0.437},
      {"measurement": "relative viability", "setting": "JZL-184 + Decitabine; first compound 0.4 µM", "value": 0.551},
      {"measurement": "relative viability", "setting": "JZL-184 + Decitabine; first compound 1.265 µM", "value": 0.546},
      {"measurement": "relative viability", "setting": "JZL-184 + Decitabine; first compound 4 µM", "value": 0.549},
      {"measurement": "relative viability", "setting": "JZL-184 + Vorinostat; first compound 0.04 µM", "value": 0.307},
      {"measurement": "relative viability", "setting": "JZL-184 + Vorinostat; first compound 0.4 µM", "value": 0.434},
      {"measurement": "relative viability", "setting": "JZL-184 + Vorinostat; first compound 1.265 µM", "value": 0.754},
      {"measurement": "relative viability", "setting": "JZL-184 + Vorinostat; first compound 4 µM", "value": 0.421},
      {"measurement": "relative viability", "setting": "JZL-184 + Olaparib; first compound 0.04 µM", "value": 1.03},
      {"measurement": "relative viability", "setting": "JZL-184 + Olaparib; first compound 0.4 µM", "value": 0.853},
      {"measurement": "relative viability", "setting": "JZL-184 + Olaparib; first compound 1.265 µM", "value": 0.783},
      {"measurement": "relative viability", "setting": "JZL-184 + Olaparib; first compound 4 µM", "value": 0.626}
    ]}
  ]
}
